In patent publication US4870168A, “3-Unsaturated alkyl cephems from 3-triflyl cephems” (Bristol-Myers Company, priority 1987, dated 1989):
Converted amounts (≈) assume the structure as drawn. Like-named read-outs stand apart in the source and are kept apart here.

Columns and labels:
Format in all cases: cell-based
S. aureus = test: Antibacterial activity (MIC); details: Staphylococcus aureus
S. faecalis = test: Antibacterial activity (MIC); details: Enterococcus faecalis
S. aureus /Pen. Res. = test: Antibacterial activity (MIC); details: Staphylococcus aureus
S. aureus /Meth. Res. = test: Antibacterial activity (MIC); details: Staphylococcus aureus
S. pneumoniae = test: Antibacterial activity (MIC); details: Streptococcus pneumoniae
P. mirabilis = test: Antibacterial activity (MIC); details: Proteus mirabilis
K. pneumoniae = test: Antibacterial activity (MIC); details: Klebsiella pneumoniae
E. coli = test: Antibacterial activity (MIC); details: Escherichia coli
S. pyogenes = test: Antibacterial activity (MIC); details: Streptococcus pyogenes
E. cloacae = test: Antibacterial activity (MIC); details: Enterobacter cloacae
S. aureus /50% serum = test: Antibacterial activity (MIC), 50% serum; details: Staphylococcus aureus
[1] = S. aureus /Pen. Res., read-out: MIC
[2] = S. aureus /Meth. Res., read-out: MIC

Row | SMILES | MIC (S. aureus) [µg/mL] | MIC (S. faecalis) [µg/mL] | MIC (S. aureus /Pen. Res.; [1]) [µg/mL] | MIC (S. aureus /Meth. Res.; [2]) [µg/mL] | MIC (S. pneumoniae) [µg/mL] | MIC (P. mirabilis) [µg/mL] | MIC (K. pneumoniae; first of two lines) [µg/mL] | MIC (K. pneumoniae; second of two lines) [µg/mL] | MIC (E. coli; first of two lines) [µg/mL] | MIC (E. coli; second of two lines) [µg/mL] | MIC (S. pyogenes) [µg/mL] | MIC (E. cloacae) [µg/mL] | MIC (S. aureus /50% serum) [µg/mL] | MIC (S. aureus /Pen. Res.) [µg/mL] | MIC (S. aureus /Meth. Res.) [µg/mL]
1 | C/C=C\C1=C(C(=O)OC(c2ccccc2)c2ccccc2)N2C(=O)C(NC(=O)Cc3ccccc3)[C@H]2SC1 (some centres unmarked) [Ex. 1, Diphenylmethyl 7-phenylacetamido-3-(Z-1-propenyl)-3-cephem-4-carboxylate] | 0.13 (≈ 0.248 µM) | 8 (≈ 15.2 µM) | 1 (≈ 1.91 µM) | > 125 | 0.03 (≈ 0.0572 µM) | 1 (≈ 1.91 µM) | 0.5 (≈ 0.953 µM) | 63 (≈ 120 µM) | 1 (≈ 1.91 µM) | 4 (≈ 7.62 µM) | 0.016 (≈ 0.0305 µM) | > 125 | 0.5 (≈ 0.953 µM) | – | –
2 | CC#CC1=C(C(=O)OC(c2ccccc2)c2ccccc2)N2C(=O)C(NC(=O)Cc3ccccc3)[C@H]2SC1 (some centres unmarked) [Ex. 2, Diphenylmethyl 7-phenylacetamido-3-(1-propynyl)-3-cephem-4-carboxylate] | 4 (≈ 7.65 µM) | 16 (≈ 30.6 µM) | 8 (≈ 15.3 µM) | > 16 | 8 (≈ 15.3 µM) | 16 (≈ 30.6 µM) | 16 (≈ 30.6 µM) | > 16 | 16 (≈ 30.6 µM) | 16 (≈ 30.6 µM) | 4 (≈ 7.65 µM) | > 16 | > 16 | – | –
3 | N[C@@H](C(=O)N[C@@H]1C(=O)N2C(C(=O)O)=C(Cl)CS[C@H]12)c1ccccc1 [CEFACLOR, reference compound] | 0.25 (≈ 0.68 µM) | 32 (≈ 87 µM) | – | – | 0.13 (≈ 0.353 µM) | 2 (≈ 5.44 µM) | 0.5 (≈ 1.36 µM) | 63 (≈ 171 µM) | 1 (≈ 2.72 µM) | 2 (≈ 5.44 µM) | 0.13 (≈ 0.353 µM) | > 125 | 1 (≈ 2.72 µM) | 1 (≈ 2.72 µM) | > 125
4 | CC=C=CC1=C(C(=O)O)N2C(=O)C(NC(=O)[C@H](N)c3ccc(O)cc3)C2SC1 (some centres unmarked) [Ex. 14] | 8 (≈ 19.9 µM) | > 63 | 63 (≈ 157 µM) | > 63 | 2 (≈ 4.98 µM) | 63 (≈ 157 µM) | > 63 | > 63 | > 63 | > 63 | 2 (≈ 4.98 µM) | > 63 | 32 (≈ 79.7 µM) | – | –
5 | CC(C)=CC1=C(C(=O)OC(c2ccccc2)c2ccccc2)N2C(=O)C(NC(=O)Cc3ccccc3)[C@H]2SC1 (some centres unmarked) [Ex. 3, Diphenylmethyl 7-phenylacetamido-3-(2-methyl-1-propenyl)-3-cephem-4-carboxylate] | – | 4 (≈ 7.43 µM) | 0.5 (≈ 0.928 µM) | > 125 | 0.03 (≈ 0.0557 µM) | 4 (≈ 7.43 µM) | 4 (≈ 7.43 µM) | > 125 | 2 (≈ 3.71 µM) | 32 (≈ 59.4 µM) | 0.03 (≈ 0.0557 µM) | 63 (≈ 117 µM) | 0.06 (≈ 0.111 µM) | – | –
6 | CC1=C(C(=O)O)N2C(=O)[C@@H](NC(=O)[C@H](N)c3ccccc3)[C@H]2SC1 [CEPHALEXIN, reference compound] | 0.5 (≈ 1.44 µM) | 63 (≈ 181 µM) | – | – | 0.5 (≈ 1.44 µM) | 4 (≈ 11.5 µM) | 4 (≈ 11.5 µM) | 63 (≈ 181 µM) | 4 (≈ 11.5 µM) | 4 (≈ 11.5 µM) | 0.25 (≈ 0.72 µM) | > 125 | 1 (≈ 2.88 µM) | 8 (≈ 23 µM) | > 125
